Assay results: patent US20110054039A1, “USE OF ALKYL SULFATES OR SULFONATES AGAINST PROPIONIBACTERIUM ACNES” (priority 2008, published 2011)
Read-outs that look alike come from different tables or passages of the source.

What was measured:
Assay type in all cases: cell-based
[1] = tested on: Propionibacterium acnes NCTC 737; test: Minimum Biocidal (Bactericidal) Concentration (MBC) assay; settings: P. acnes NCTC 737; for MBC: sub-culture on antibiotic-free agar after MIC assay
Protocol: (§1) The test micro-organism represented the cutaneous propionibacteria. […] The propionibacteria are clinically significant due to their involvement in acne. This is a very common, complex and multi-factorial skin disease in which P. acnes and other Propionibacterium spp. […] They are also opportunistic pathogens in compromised hosts.
(§2) The propionibacteria were cultured and maintained on Wilkins-Chalgren Anaerobe Medium (agar and broth) at pH 6.0; all cultures were incubated anaerobically at 37° C. for 72 hours.
This assay, normally carried out after an MIC assay, determines the minimum concentration of a compound that is lethal to the micro-organism being tested.
These samples were then individually sub-cultured on antibiotic-free agar medium, under the incubation conditions described above. Following incubation they were examined visually for microbial growth.
(§3) MIC, MBC and DDA assays, as described above, were carried out using as the test compound sodium n-tetradecyl sulphate (STS, ex Sigma Aldrich, UK), dissolved in distilled water. All the experiments were conducted in triplicate. For the DDA experiments, 200 μg of the test compound was loaded onto each disc.
(§4) The MIC/MBC experiments were conducted in triplicate, with the exception of those for SDS and ADS which were conducted in duplicate. The DDAs were performed either in triplicate, in which case standard deviations are quoted in parentheses, or as a single replicate. For the DDA experiments, 200 μg of the test compound was loaded onto each disc.

[2] = tested on: Propionibacterium acnes NCTC 737; test: Supplemented Disc Diffusion Assay (agar with salt or lipid); settings: P. acnes NCTC 737, 200 μg per disc; for zone of inhibition at 200 µg/disc: Cutibacterium acnes, NCTC737, 72 h
Protocol: as §1, §2
(§5) A sterile paper disc was impregnated with a sample of the test compound in a suitable solvent and 30 minutes allowed for the solvents to evaporate (where possible). The disc was then placed on an agar plate onto which the test micro-organism had been inoculated. The plate was then incubated under the conditions described above, following which it was examined visually for signs of microbial growth. […] The diameter of this zone of ‘inhibition’ was measured using a ProtoCOL™ automated zone sizer (Synbiosis, Cambridge, UK).
Performance under these conditions can provide a more reliable indication of activity on topical application.
as §3, §4

[3] = tested on: Propionibacterium acnes NCTC 737; test: Disc Diffusion Assay (DDA); settings: P. acnes NCTC 737, 200 μg of test compound per disc; for zone of inhibition at 200 µg/disc: Cutibacterium acnes, NCTC737, read-out: DDA (diameter of zone of inhibition)
Protocol: as §1, §2
This is an internationally recognised standard method for qualitatively assessing the antimicrobial activity of a compound.
as §5, §3, §4

[4] = tested on: Propionibacterium acnes NCTC 737; test: Minimum Inhibitory Concentration (MIC) assay, broth microdilution; settings: for MIC: P. acnes NCTC 737, Wilkins-Chalgren broth pH 6.0, anaerobic, 37° C., 72 hours
Protocol: as §1, §2
This is a standard international method for quantitatively assessing the antimicrobial activity of a compound in a liquid medium. […] The culture media were as described above.
The wells were inoculated with a liquid suspension of freshly grown micro-organism and incubated under the conditions described above. After incubation, the microtitre plate was examined visually (with the aid of a light box) for cloudiness in each well, which would indicate microbial growth. The MIC value was recorded as the lowest concentration of test compound required to inhibit microbial growth, ie the lowest concentration for which the liquid in the well remained clear.
The assays included both negative (culture medium with no micro-organisms) and positive (culture medium plus diluting solvent plus micro-organism) controls.
as §3, §4

[5] = Cutibacterium acnes, NCTC737, read-out: MBC
[6] = agar supplemented with sodium chloride (100 mM), read-out: DDA + salt
[7] = agar supplemented with triolein at 1% v/v, read-out: DDA + lipid
[8] = Cutibacterium acnes, NCTC737, read-out: MIC
[9] = agar supplemented with sodium chloride (100 mM)
[10] = agar supplemented with triolein at 1% v/v

Compound	MBC [1, 5]	MIC/MBC ratio [1]	zone of inhibition at 200 µg/disc [2, 6]	zone of inhibition at 200 µg/disc [2, 7]	DDA + salt ([2]; agar supplemented with sodium chloride (100 mM), sulphate)	DDA + lipid ([2]; agar supplemented with triolein at 1% v/v, sulphate)	zone of inhibition at 200 µg/disc [3]	DDA (diameter of zone of inhibition) ([3]; sulphate)	MIC [4, 8]	antibacterial activity against P. acnes NCTC 737 (in words) ([4]; summary of MIC, MBC and DDA results)	MBC [1]	DDA + salt [2, 9]	DDA + lipid [2, 10]	DDA (diameter of zone of inhibition) [3]	MIC [4]
CCCCCCCCCCCCCCOS(=O)(=O)O [Sodium n-tetradecyl sulphate, sodium n-tetradecyl sulphate]	0.98 µg/mL	1	31.6 mm	33.7 mm	31.62 mm	33.67 mm	29.9 mm	29.87 mm	0.98 µg/mL	highly active	–	–	–	–	–
CCCCCCCCCCCOS(=O)(=O)[O-].[Na+] [Sodium n-undecyl sulphate, sodium n-undecyl sulphate]	62.5 µg/mL	0.5	19.9 mm	17.7 mm	–	–	17.3 mm	–	31.2 µg/mL	–	–	–	–	–	–
CCCCCCCCCCCCCCCCCCOS(=O)(=O)[O-].[Na+] [Sodium octadecyl sulphate, sodium octadecyl sulphate]	62.5 µg/mL	0.03	9.3 mm	9.92 mm	–	–	9.41 mm	–	1.95 µg/mL	–	–	–	–	–	–
CCCCCCCCOS(=O)(=O)[O-].[Na+] [Sodium octyl sulphate, sodium octyl sulphate]	> 250 µg/mL	–	0 mm	0 mm	–	–	0 mm	–	> 250 µg/mL	–	–	–	–	–	–
CCCCCS(=O)(=O)[O-].[Na+] [Sodium pentane sulphonate, sodium pentane sulphonate]	> 250 µg/mL	–	0 mm	0 mm	–	–	0 mm	–	> 250 µg/mL	–	–	–	–	–	–
CCCCCCCCCCCCCOS(=O)(=O)[O-].[Na+] [Sodium tridecyl sulphate, sodium tridecyl sulphate]	7.8 µg/mL	1	33.3 mm	31.8 mm	–	–	32.2 mm	–	7.8 µg/mL	–	–	–	–	–	–
CCCCCCCOS(=O)(=O)[O-].[Na+] [Sodium-n-heptyl sulphate, sodium-n-heptyl sulphate]	> 250 µg/mL	–	0 mm	0 mm	–	–	0 mm	–	> 250 µg/mL	–	–	–	–	–	–
CCCCCCCCCCCCOS(=O)(=O)O.NC(CO)(CO)CO [Trizma ® dodecyl sulphate, Trizma® (2-amino-2-(hydroxymethyl)-1,3-propanediol, alsoknownas ‘Tris’) dodecyl sulphate]	–	0.5	–	–	–	–	–	–	–	–	62.5 µg/mL	0.00 mm	0.00 mm	0.00 mm	31.25 µg/mL
triethanolamine lauryl sulphate [Triethanolamine dodecyl sulphate]	–	0.25	–	–	–	–	–	–	–	–	15.6 µg/mL	28.33 mm	25.53 mm	30.19 mm	3.9 µg/mL
